Results taken from ChEMBL document CHEMBL1123728, “Rational design of 4-[(methylsulfonyl)amino]benzamides as class III antiarrhythmic agents” (J Med Chem, 1987).
Calls of active or inactive are those of the source.

What was measured:
Canis familiaris [1] = species on record: Canis familiaris; assay: Concentration required for 20% increase in action potential duration of canine Purkinje fiber (intracellular electrophysiology) in vitro measured at 95% repolarization was reported;NR means not reached; assay type: functional; settings: Canis lupus familiaris
Canis familiaris [2] = species on record: Canis familiaris; assay: Concentration required for 20% increase in the functional refractory period of canine ventricular muscle (extracellular electrophysiology) in vitro was reported; NR means not reached; settings: Canis lupus familiaris
Canis familiaris [3] = assay: Efficacy in blocking sustained ventricular tachycardia (rate>250 bpm) elicited by programmed electrical stimulation in anesthetized dogs after iv administration of dose 1 mg/kg; no. of successful exp / total no. of exp = 2/7; assay type: functional, Canis lupus familiaris, Cardiac ventricle
Canis familiaris [4] = species on record: Canis familiaris; assay: Concentration required for 20% increase in action potential duration of canine Purkinje fiber (intracellular electrophysiology) in vitro measured at 95% repolarization was reported. Range is between 9-63; assay type: functional, Canis lupus familiaris
Canis familiaris [5] = species on record: Canis familiaris; assay: Concentration required for 20% increase in the functional refractory period of canine ventricular muscle (extracellular electrophysiology) in vitro was reported. Range is between 9-4000; set-up: species or system Canis lupus familiaris
Canis familiaris [6] = assay: Efficacy in blocking sustained ventricular tachycardia (rate>250 bpm) elicited by programmed electrical stimulation in conscious dogs after iv administration of dose 3 mg/kg; no. of successful exp / total no. of exp = 4/4; assay type: functional, Canis lupus familiaris, Cardiac ventricle
Canis familiaris [7] = species on record: Canis familiaris; assay: Concentration required for 20% increase in the functional refractory period of canine ventricular muscle (extracellular electrophysiology) in vitro was reported;NR means not reached; settings: Canis lupus familiaris
Canis familiaris [8] = species on record: Canis familiaris; assay: Concentration required for 20% increase in action potential duration of canine Purkinje fiber (intracellular electrophysiology) in vitro measured at 95% repolarization was reported. NR means 10% increase in APD95 (C10APD95) was observed at 30 um(22; assay type: functional; settings: Canis lupus familiaris
Canis familiaris [9] = assay: Efficacy in blocking sustained ventricular tachycardia (rate>250 bpm) elicited by programmed electrical stimulation in anesthetized dogs after iv administration of dose 9 mg/kg; no. of successful exp / total no. of exp = 4/4; assay type: functional, Canis lupus familiaris, Cardiac ventricle
Canis familiaris [10] = species on record: Canis familiaris; assay: Concentration required for 20% increase in the functional refractory period of canine ventricular muscle (extracellular electrophysiology) in vitro was reported. Range is between 5.6-800; set-up: species or system Canis lupus familiaris
Canis familiaris [11] = species on record: Canis familiaris; assay: Concentration required for 20% increase in the functional refractory period of canine ventricular muscle (extracellular electrophysiology) in vitro was reported. Range is between 1.6-25; set-up: species or system Canis lupus familiaris
Canis familiaris [12] = assay: Efficacy in blocking sustained ventricular tachycardia (rate>250 bpm) elicited by programmed electrical stimulation in anesthetized dogs after iv administration of dose 1.4 mg/kg; no. of successful exp / total no. of exp = 3/5; assay type: functional, Canis lupus familiaris, Cardiac ventricle
Canis familiaris [13] = species on record: Canis familiaris; assay: Concentration required for 20% increase in action potential duration of canine Purkinje fiber (intracellular electrophysiology) in vitro measured at 95% repolarization was reported. Range is between 1.0-34; assay type: functional, Canis lupus familiaris
Canis familiaris [14] = species on record: Canis familiaris; assay: Concentration required for 20% increase in action potential duration of canine Purkinje fiber (intracellular electrophysiology) in vitro measured at 95% repolarization was reported; NR means not reached; assay type: functional; settings: Canis lupus familiaris
Canis familiaris [15] = species on record: Canis familiaris; assay: Concentration required for 20% increase in the functional refractory period of canine ventricular muscle (extracellular electrophysiology) in vitro was reported. Range is between 0.8-11; set-up: species or system Canis lupus familiaris
Canis familiaris [16] = species on record: Canis familiaris; assay: Concentration required for 20% increase in action potential duration of canine Purkinje fiber (intracellular electrophysiology) in vitro measured at 95% repolarization was reported. Range is between 0.08-5; assay type: functional, Canis lupus familiaris
Canis familiaris [17] = assay: Efficacy in blocking sustained ventricular tachycardia (rate>250 bpm) elicited by programmed electrical stimulation in anesthetized dogs after iv administration of dose 0.8 mg/kg; no. of successful exp / total no. of exp = 5/9; assay type: functional, Canis lupus familiaris, Cardiac ventricle
Canis familiaris [18] = species on record: Canis familiaris; assay: Concentration required for 20% increase in action potential duration of canine Purkinje fiber (intracellular electrophysiology) in vitro measured at 95% repolarization was reported. Range is between 0.2-5; assay type: functional, Canis lupus familiaris
Canis familiaris [19] = species on record: Canis familiaris; assay: Concentration required for 20% increase in the functional refractory period of canine ventricular muscle (extracellular electrophysiology) in vitro was reported, range is 0.3-1.1; set-up: species or system Canis lupus familiaris
Canis familiaris [20] = species on record: Canis familiaris; assay: Concentration required for 20% increase in the functional refractory period of canine ventricular muscle (extracellular electrophysiology) in vitro was reported. Range is between 0.05-3.7; set-up: species or system Canis lupus familiaris
Canis familiaris [21] = species on record: Canis familiaris; assay: Concentration required for 20% increase in action potential duration of canine Purkinje fiber (intracellular electrophysiology) in vitro measured at 95% repolarization was reported. Range is between 0.01-0.03; assay type: functional, Canis lupus familiaris
Canis familiaris [22] = species on record: Canis familiaris; assay: Decrease in Vmax in isolated canine Purkinje fibers at 10 uM; assay type: functional, Canis lupus familiaris, Purkinje fiber
Canis familiaris [23] = assay: Efficacy in blocking sustained ventricular tachycardia (rate>250 bpm) elicited by programmed electrical stimulation in anesthetized dogs after iv administration of dose 0.3 mg/kg; no. of successful exp / total no. of exp = 7/10; assay type: functional, Canis lupus familiaris, Cardiac ventricle
Canis familiaris [24] = species on record: Canis familiaris; assay: Concentration required for 20% increase in action potential duration of canine Purkinje fiber (intracellular electrophysiology) in vitro measured at 95% repolarization was reported. Range is between 0.03-2; assay type: functional, Canis lupus familiaris
Canis familiaris [25] = species on record: Canis familiaris; assay: Concentration required for 20% increase in the functional refractory period of canine ventricular muscle (extracellular electrophysiology) in vitro was reported;NR=at 10 uM the FRP was increased 13%; settings: Canis lupus familiaris
Canis familiaris [26] = assay: Efficacy in blocking sustained ventricular tachycardia (rate>250 bpm) elicited by programmed electrical stimulation in conscious dogs after iv administration of dose 1 mg/kg; no. of successful exp / total no. of exp = 5/6; assay type: functional, Canis lupus familiaris, Cardiac ventricle
Canis familiaris [27] = assay: Efficacy in blocking sustained ventricular tachycardia (rate>250 bpm) elicited by programmed electrical stimulation in conscious dogs. Administered orally at a dose of 2.5 mg/kg after iv administration; no. of successful exp / total no. of exp = 5 /6; assay type: functional, Canis lupus familiaris, Cardiac ventricle; settings: route oral
[28] = Half life period was determined; settings: dog
Canis familiaris [29] = species on record: Canis familiaris; assay: Concentration required for 20% increase in the functional refractory period of canine ventricular muscle (extracellular electrophysiology) in vitro was reported. Range is between 9-35; set-up: species or system Canis lupus familiaris
Mus musculus = assay: Acute toxicity after intraperitoneal administration in mouse was determined; range 250-300 mg/kg; assay type: functional; settings: ip
[30] = pKa2 was determined; assay type: physicochemical; settings: read-out: pKa2
Canis familiaris [31] = species on record: Canis familiaris; assay: Concentration required for 20% increase in action potential duration of canine Purkinje fiber (intracellular electrophysiology) in vitro measured at 95% repolarization was reported. RAnge is between 2.0-11.4; assay type: functional, Canis lupus familiaris
Canis familiaris [32] = assay: Efficacy in blocking sustained ventricular tachycardia (rate>250 bpm) elicited by programmed electrical stimulation in 4 anesthetized dogs after iv administration of dose 1 mg/kg; no. of successful exp / total no. of exp = 4/4; assay type: functional, Canis lupus familiaris, Cardiac ventricle
[33] = pKa1 was determined; assay type: physicochemical; settings: read-out: pKa1
[34] = Bioavailability after peroral administration (3 mg/kg) in dog was determined; Range 41-98%; assay type: ADME, organism-based, Canis lupus familiaris; settings: in vivo, po, read-out: Bioavailabiility
Canis familiaris [35] = assay: Efficacy in blocking sustained ventricular tachycardia (rate>250 bpm) elicited by programmed electrical stimulation in anesthetized dogs after iv administration of 0.5 mg/kg; no. of successful exp / total no. of exp = 4/4; assay type: functional, Canis lupus familiaris, Cardiac ventricle
Canis familiaris [36] = species on record: Canis familiaris; assay: Concentration required for 20% increase in action potential duration of canine Purkinje fiber (intracellular electrophysiology) in vitro measured at 95% repolarization was reported. Range is between 0.2-0.5; assay type: functional, Canis lupus familiaris
Canis familiaris [37] = species on record: Canis familiaris; assay: Concentration required for 20% increase in the functional refractory period of canine ventricular muscle (extracellular electrophysiology) in vitro was reported. Range is between 1.2-150; set-up: species or system Canis lupus familiaris
Canis familiaris [38] = species on record: Canis familiaris; assay: Concentration required for 20% increase in the functional refractory period of canine ventricular muscle (extracellular electrophysiology) in vitro was reported; set-up: species or system Canis lupus familiaris
Canis familiaris [39] = assay: Efficacy in blocking sustained ventricular tachycardia (rate>250 bpm) elicited by programmed electrical stimulation in conscious dogs after iv administration of 0.8 mg/kg; no. of successful exp / total no. of exp = 5/5; assay type: functional, Canis lupus familiaris, Cardiac ventricle
Canis familiaris [40] = assay: Efficacy in blocking sustained ventricular tachycardia (rate>250 bpm) elicited by programmed electrical stimulation in conscious dogs after iv administration of dose 0.5 mg/kg; no. of successful exp / total no. of exp = 4/4; assay type: functional, Canis lupus familiaris, Cardiac ventricle
Canis familiaris [41] = species on record: Canis familiaris; assay: Concentration required for 20% increase in action potential duration of canine Purkinje fiber (intracellular electrophysiology) in vitro measured at 95% repolarization was reported. Range is between 1.8-2.0; assay type: functional, Canis lupus familiaris
Canis familiaris [42] = assay: Efficacy in blocking sustained ventricular tachycardia (rate>250 bpm) elicited by programmed electrical stimulation in anesthetized dogs after iv administration of dose 1.0 mg/kg; no. of successful exp / total no. of exp = 3/4; assay type: functional, Canis lupus familiaris, Cardiac ventricle

CCN(CC)CCNC(=O)c1ccc(N(C)S(C)(=O)=O)cc1
C20 APD95 (Canis familiaris [1]): Not reached | C20 FRP (Canis familiaris [2]): Not reached

CC(C)NCC(O)c1ccc(NS(C)(=O)=O)cc1 (racemic) [SOTALOL]
Efficacy (Canis familiaris [3]): 2 | C20 APD95 (Canis familiaris [4]): 22 µM | C20 FRP (Canis familiaris [5]): 52 µM | Efficacy (Canis familiaris [6]): 4

CCNCCNC(=O)c1ccc(NS(C)(=O)=O)cc1
C20 FRP (Canis familiaris [7]): Not reached | C20 APD95 (Canis familiaris [1]): Not reached

CCN(CC)CCNC(=O)c1ccc(NC(C)=O)cc1 [ACECAINIDE]
C20 APD95 (Canis familiaris [8]): Partially active | Efficacy (Canis familiaris [9]): 4 | C20 FRP (Canis familiaris [10]): 60 µM

CCN(CC)CCCNC(=O)c1ccc(NS(C)(=O)=O)cc1
C20 FRP (Canis familiaris [11]): 4 µM | Efficacy (Canis familiaris [12]): 3 | C20 APD95 (Canis familiaris [13]): 2 µM

CCN(CC)CCNC(=O)c1ccc(NS(=O)(=O)CC)cc1
C20 APD95 (Canis familiaris [14]): Not reached | C20 FRP (Canis familiaris [2]): Not reached

CCCCCCCNCCNC(=O)c1ccc(NS(C)(=O)=O)cc1.Cl
C20 FRP (Canis familiaris [15]): 4 µM | C20 APD95 (Canis familiaris [16]): 0.2 µM

C=CCN(CCN(CC)CC)C(=O)c1ccc(NS(C)(=O)=O)cc1
Efficacy (Canis familiaris [17]): 5 | C20 APD95 (Canis familiaris [18]): 0.5 µM | C20 FRP (Canis familiaris [19]): 0.5 µM

CCN(CC)CCNC(=O)c1ccc(NS(=O)(=O)C(F)(F)F)cc1
C20 FRP (Canis familiaris [7]): Not reached | C20 APD95 (Canis familiaris [1]): Not reached

CCCCCCCN(CC)CCNC(=O)c1ccc(NS(C)(=O)=O)cc1
C20 FRP (Canis familiaris [20]): 0.5 µM | C20 APD95 (Canis familiaris [21]): 0.02 µM

CCCCCCC[N+](CC)(CC)CCCCc1ccc(Cl)cc1 [CLOFILIUM]
delta Vmax (Canis familiaris [22]): -18% | Efficacy (Canis familiaris [23]): 7 | C20 APD95 (Canis familiaris [24]): 0.2 µM | C20 FRP (Canis familiaris [25]): Partially active | Efficacy (Canis familiaris [26]): 5

CCN(CC)CCNC(=O)c1ccc(NS(C)(=O)=O)cc1.Cl [SEMATILIDE HYDROCHLORIDE]
Efficacy (Canis familiaris [27]): 5 | half-life [28]: 162 min | C20 FRP (Canis familiaris [29]): 17 µM | LD50 (Mus musculus): 250 mg/kg | pKa [30]: 9.51 | C20 APD95 (Canis familiaris [31]): 3.5 µM | Efficacy (Canis familiaris [32]): 4 | pKa [33]: 7.6 | bioavailability [34]: 41%

CCN(CC)C1CCC(NC(=O)c2ccc(NS(C)(=O)=O)cc2)CC1.Cl (configuration not stated)
Efficacy (Canis familiaris [35]): 4 | C20 APD95 (Canis familiaris [36]): 0.4 µM | C20 FRP (Canis familiaris [37]): 3 µM | C20 FRP (Canis familiaris [38]): 40 µM | Efficacy (Canis familiaris [39]): 5 | Efficacy (Canis familiaris [40]): 4 | C20 APD95 (Canis familiaris [41]): 1.9 µM | Efficacy (Canis familiaris [42]): 3
